Earlier results, collected in EP0423943A2, “Use of collagenase inhibitors in the treatment of demyelinating diseases, in particular multiple sclerosis” (Beecham Group p.l.c., priority 1989, dated 1991).

Test system: metalloprotease acting at neutral pH identified as a component of myelin membranes
Conditions: myelin membrane metalloprotease, literature statement

SMILES: c1cnc2c(c1)ccc1cccnc12 [1,10-phenanthroline]
- inhibition of the enzyme: inhibited

SMILES: CC(C)C[C@H](NP(=O)(O)O[C@@H]1O[C@@H](C)[C@H](O)[C@@H](O)[C@H]1O)C(=O)N[C@@H](Cc1c[nH]c2ccccc12)C(=O)O [phosphoramidon]
- inhibition of the enzyme: not
